Key:
[1] = test system: WINT target gene expression; test: Wnt target gene expression; conditions: FIG. 23
[2] = test system: bone marrow hematopoietic stem cells (HSCs); test: Total body irradiation survival (hematopoietic suppression); assay type: in vivo, C3H/HeN mice
Procedure: FIG. 8A-C: (A) Kaplan Meier Plot of Male C3H/HeN mice 7.75Gy 30 Day TBI (n=30) 50 mg/kg BCN057. (B). Kaplan Meier Plot of Female C3H/HeN mice 7.75Gy 30 Day TBI (n=10) 25 mg/kg BCN057. (C) Cytokine Profile in Plasma Male C3H/HeN mice 7.75Gy TBI Day 8 receiving BCN057.
7.75 Gy radiation is used to ablate bone marrow hematopoietic stem cells (HSCs) in these strains of mice. […] Lethality from bone marrow suppression occurs in the 14-25 day region due to the life cycle of approximately 2 weeks for RBC and inability to replace them without HSCs
7.73 Gy radiation is used to ablate bone marrow HSCs in the C3H strain of mice.

[3] = test system: macrophages co-cultured with fibroblasts; test: Macrophage-fibroblast co-culture, CFSE proliferation; assay type: cell-based, mouse
Description: Cell proliferation was used as a sensitive in vitro endpoint because it can also be used to detect cell death. Cells were labeled with the fluorescent dye CF SE, which becomes diluted as the cells proliferate over time. We performed a series of experiments using tumor cell lines to validate the assay and determine the effective ratios of macrophages to target cells (not shown) before performing experiments with normal early-pass murine embryo fibroblasts. To study the effects of BCN-512 and macrophages on fibroblast cell proliferation and death, irradiated (2 or 6 Gy) macrophages and fibroblasts were added at various ratios. Normal mouse fibroblasts were labelled with CF SE and added to the macrophages in 96-well plates. BCN-512 (10 μM) and/or LPS (1 μg/mL) or diluent were then added, and the plates cultured for 1, 2, or 3 days. The purpose of the LPS was to activate the macrophages. BCN-512 was added 1 hour after LPS, which was added immediately after irradiation

lung organoids = test: Ex vivo 3D lung organoid culture after radiation; assay type: cell-based, mice; conditions: 6 Gy; 28 μM at 1-hour post-radiation exposure
Procedure: 512 induces lung organoid growth in ex vivo cultures: Ex vivo 3D organoid cultures are one of the best models for studying stem cell growth and proliferation because organoid growth depends primarily on the presence of stem cells. For these experiments, mice were euthanized by CO2 or ketamine-xylazine administration and the abdominal aorta was exposed and exsanguinated. The thoracic cavity was opened, and the lungs were exposed. Blood was flushed from the lung vasculature by perfusion with 10 mL of sterile cold PBS through the right ventricle. The trachea was cannulated with a 24-G cannula, and 1.2 mL of 10 U dispase (BD) was then injected into the lungs. The trachea and lungs were removed from the chest en-block and incubated for 20 minutes at room temperature (RT). The lung lobes were dissected from the trachea, heart, and rest of mediastinal structures and then finely minced and incubated for 10 more min with 2 mL of dispase. The suspension was passed through an 18-G needle 4-5 times to help open the lung compartments. If sticky DNA was detected, 10-30 μL of 4 mg/mL DNase I (Sigma) was added to the cell suspension and incubated at 37° C. for 5 min. The cells were filtered through a 100-μ cell strainer (BD Biosciences) to obtain single-cell suspensions (SCS). Red blood cells were lysed using RBC lysing buffer. […]

O=[N+]([O-])c1ccc(S(=O)(=O)N2CCN(c3ccccc3)CC2)cc1 [BCN512, 1-[(4-nitrobenezene)sulfonyl]-4-phenyl piperazine]
Wnt target gene expression [1]: induces the WINT target gene expression | lethality from bone marrow suppression ([2]; 7.73 Gy TBI, C3H strain of mice): sufficient to prevent lethality from bone marrow suppression | efficacy in total body irradiation experiments ([2]; Deoxycholate formulation, subcutaneously): good efficacy | toxicity of LPS-treated macrophages to fibroblasts ([3]; 10 μM, LPS 1 μg/mL, ratios of 20:1 or 25:1): practically abolished the toxicity associated with LPS treatment | increase of viable fibroblasts by irradiated macrophages ([3]; 6 Gy macrophage irradiation, 3 days): seemed to neutralize this function | lung organoid growth (lung organoids): mitigated the radiation damage and induced lung organoid growth
